Measurements: patent US20100255127A1, “AROMATASE INHIBITOR” (KRACIE PHARMA, LTD., priority 2007, published 2010)

Target: T1, aromatase (CYP19) (Homo sapiens, UniProt P11511)
T1 construct: purchased BD Biosciences Inc. (U.S.A.)
T1 sequence (P11511 1-503): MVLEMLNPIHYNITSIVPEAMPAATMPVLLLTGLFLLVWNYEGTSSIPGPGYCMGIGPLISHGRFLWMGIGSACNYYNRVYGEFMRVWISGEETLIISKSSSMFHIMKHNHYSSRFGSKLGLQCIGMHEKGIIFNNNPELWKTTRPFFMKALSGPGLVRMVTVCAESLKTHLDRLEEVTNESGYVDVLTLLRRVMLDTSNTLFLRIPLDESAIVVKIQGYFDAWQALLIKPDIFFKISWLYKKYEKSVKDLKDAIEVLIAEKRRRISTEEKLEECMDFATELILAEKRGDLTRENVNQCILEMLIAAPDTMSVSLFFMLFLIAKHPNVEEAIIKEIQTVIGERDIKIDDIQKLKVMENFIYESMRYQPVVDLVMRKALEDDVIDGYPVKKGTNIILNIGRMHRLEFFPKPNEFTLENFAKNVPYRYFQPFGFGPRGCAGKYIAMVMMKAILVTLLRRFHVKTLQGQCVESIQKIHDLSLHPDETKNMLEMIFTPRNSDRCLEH
Assay: Measurement of aromatase-inhibitory activity (fluorometric HFC formation, 96-well microplate, BD Biosciences reagents)
Format: biochemical
Conditions: for inhibition at 0.18 µM: concentration 0.18 μM; for inhibition at 0.18 µM / inhibition at 0.53 µM / inhibition at 1.6 µM / inhibition at 4.8 µM: average of three experiments, read-out: Inhibitory rate; for inhibition at 0.53 µM: concentration 0.53 μM; for inhibition at 1.6 µM: concentration 1.60 μM; for inhibition at 4.8 µM: concentration 4.80 μM; for IC50: text b76, components
Description: That is, by using a 96-well microplate, after 144 μL of a previously prepared NADPH-producing system solution (NADPH-Cofactor Mix) and 6 μL of an extract solution of test samples were mixed, and incubated at 37° C. for 10 minutes. Then, 100 μL of a solution (Enzyme Substrate Mix) containing an enzyme and a substrate was mixed with the above mixture, and reacted at 37° C. for 30 minutes. Thereafter, 75 μL of a reaction-terminating solution was added to the above, and an amount of a formed HFC (7-hydroxy-4-trifluoromethyl coumarin) which is a metabolite of the substrate was obtained by measuring a fluorescent intensity at an excitation wavelength of 409 nm and a fluorescent wavelength of 538 nm using a plate reader ([…]luor, TECAN). Incidentally, 75 μL of stop solution was added to a blank after incubation for 10 minutes, in place of adding the solution of enzyme and substrate. Aromatase inhibitory rate was calculated by the formula 1.
Aromatase inhibitory rate (%)={1−[…]}×100 [Numerical formula 1]
A=(Absorbance after enzymatic reaction without test sample−Absorbance of blank thereof) B=(Absorbance after enzymatic reaction with each test sample−Absorbance of each blank thereof)
Also, to avoid a non-specific inhibitory action (for example, protein coagulation action due to tannin), a control protein which incidents to the reagent was added to the NADPH-producing system solution.
With regard to solution of test sample, the concentration was stepwisely diluted and an inhibitory rate at each concentration was obtained, and from the results, the concentration of 50% inhibition (IC50 value) was obtained according to the interpolation method.

Row | inhibition at 0.18 µM [%] | inhibition at 0.53 µM [%] | inhibition at 1.6 µM [%] | inhibition at 4.8 µM [%] | IC50 [nM] | SMILES | aromatase-inhibitory activity, concentration dependency in words
1 | 30.4 ± 1.5 | 48.1 ± 6.9 | 63.5 ± 12.6 | 67.7 ± 21.3 | 754 | COc1ccc(-c2oc3c(CC=C(C)C)c(O[C@@H]4O[C@H](CO)[C@@H](O)[C@H](O)[C@H]4O)cc(O)c3c(=O)c2O[C@@H]2O[C@@H](C)[C@H](O)[C@@H](O)[C@H]2O)cc1 [Icariin, icariin] | 
2 | 8.7 ± 9.3 | 12.4 ± 4.6 | 20.6 ± 1.2 | 59.4 ± 7.1 | 4860 | COc1cc(C2Oc3cc(C4Oc5cc(O)cc(O)c5C(=O)C4O)ccc3OC2CO)ccc1O (centres unmarked) [Silybin, silybin] | concentration-dependent inhibitory activity
